Assay results published in patent US20250009844A1, “MATURATION OF MUCOSAL DEFENSE AND GUT/LUNG FUNCTION IN THE PRETERM INFANT” (Novozymes A/S, priority 2017, published 2025).
Entries after “also recorded” stand apart in the source; their conditions may differ. No end group written: not given here.

Assays:
PBMC cells = test: PBMC cell viability, Alamar Blue, 24 hours (Example 8); assay type: cell-based, human; conditions: 1, 10 and 40 μg/ml, 0.6 and 20.0 pg/ml LPS
Procedure: FIG. 39. Cell viability of PBMC cells following exposure for 24 hours to Alamar Blue and HD5, hBD-1, hBD-2, hBD-3 and hBD-4 at concentrations of 1, 10 and 40 μg/ml.
PBMC cell viability following exposure for 24 hours to Alamar Blue and HD5,hBD-1, hBD-2, hBD-3 and hBD-4 at concentrations of 1, 10 and 40 μg/ml at 0.6 and 20.0 pg/ml LPS respectively (FIG. 39).

BALB/c mice [1] = test: Murine model of acute graft versus host disease following stem cell transplantation, oral hBD-2 (Example 11); assay type: in vivo; conditions: for Intestinal T cell infiltration / Myeloid cell infiltration / Infiltration with CD45+ leucocytes: lamina propria; for Infiltration with CD45+ leucocytes: FACS analysis
Procedure: Bone marrow was harvested: hind limbs harvested from 2 female WT C57BL/6 mice aseptically. Skeletal muscle was removed and epiphysis cut away. Lumen of bone flushed with PBS and cells pelleted and taken up. Harvest of T-cells: spleens from 2 female WT C57BL/6 mice were meshed through a […] cell strainer into a PBS filled dish. Cells were taken up in PBS and transferred into a 50 mL falcon tube and spun down. Cells were taken up in 1 mL PBS and 20 μL of CD4 microbead+20 μL CD8 microbeads per spleen added for incubation for 20 min at 4 degrees C. Cells were washed with PBS and applied to MACS separation in order to positively select CD4+ and CD8+ cells. Positively selected T-cells were counted and taken up. Transplantation: directly after the second irradiation, all WT BALB/c recipient mice were injected with 5×1.000.000 BM cells (50 μL) i.v. into the retroorbital venous plexus under isoflurane anesthesia. 15 BALB/c mice were treated with 1.2 mg of hBD2/kg BW/day in 100 μL PBS per day vial oral gavage from day 0-10.
15 BALB/c mice received vehicle 100 μL PBS per day via oral gavage from day 0-10.
The mice were weighed daily for the initial 7 days and survival was monitored for 100 days.

BALB/c mice [2] = test: Therapeutic intervention in murine house dust mite/Freund's complete adjuvant driven model of allergic asthma (Example 6); assay type: in vivo; conditions: for Increase of airway resistance (AHR): vs HDM challenged vehicle
Procedure: Treatment regime: Female 7-10 weeks old BALB/c mice were randomly allocated into 6 study groups one day prior to study start and subcutaneously (SC) sensitized to house dust mite (100 μg HDM in 200 μL saline plus Freund's complete adjuvant in 0.9% saline). Mice were then intranasally (IN) challenged with HDM on day 14 (HDM 25 μg in 50 μL of saline). Dexamethasone was administered orally (1 mg/kg BID; 50 μL phosphate buffered saline (PBS)) on day 14. hBD-2 was administered IN or orally (1.7 mg/kg TID IN; 0.4 mg/kg TID IN; 0.4 mg/kg TID orally, 50 μL phosphate buffered saline) on day 14. The initial dose was administered 60 minutes prior to challenge, and the subsequent two doses approximately 6 hours apart (FIG. 3).
Airway inflammation: At 48 hours post challenge, bronchoalveolar lavage was performed washing the lungs with 3 volumes of cold PBS (0.4; 0.3 and 0.3 mL, total 1 mL). Total and differential leucocyte cell counts were determined on an automated haematological analyser Sysmex XT-2000iV.
Data are represented as airway resistance at […] methacholine and as dose responsive curves. Lung sampling for cytokine analysis: After completion of every BAL, lungs were removed from the thorax, snap frozen in liquid nitrogen and stored frozen at −80 degrees Celsius until analysis of cytokine concentration of IL-1β, TNF-α, IL-6, IL-10 and IFNγ by ELISA.

[3] = test system: microbiota of the intestine; test: Therapeutic high fat diet model in diet-induced obese mice, 16S microbial analyses (Example 2); assay type: in vivo
Excerpt: The overall design of the study is shown in FIG. 1, lower panel, “Therapeutic study”. Mice and diets. The experiment elucidates the effect of hBD-2 and HD5 on the microbiota in diet-induced obese mice. A run-in period of 13 weeks where mice were fed a very HFD (60% energy from fat) preceded the intervention. Only mice meeting the criteria of a minimum of 12 gram weight gain (approximately 50% of initial bodyweight) during the run-in period were included in the final analyses. […] They were exposed to all experimental tests, but excluded from the analyses.
Treatment regimen. Before the intervention all mice were MR scanned. Cages of mice were allocated to experimental groups based on their fat mass. All subsequent measures were paired with data from the same mouse before the intervention. A LFD (low fat diet) reference group was running in parallel. As controls for the intervention 2 additional groups were included: a) very HFD and b) LFD. Experimental mice stayed on the very HFD during the intervention. The mice were on the experimental diet for 10 weeks. They were co-housed throughout the experiment, 4 mice per cage, 3 cages per group. All tests ran over 3 days, 1 cage per group per day.
Microbial analyses were carried out to study the microbiota of the intestine. Longitudinal 16S characterization was conducted on 4 paired samples from 60 mice, 240 samples in total. Each mouse was sampled prior to diet change, 1 week post diet change, 4 weeks post diet change and at termination, thus ensuring a thorough characterization of the faecal microbiota as a result of defensin treatment.

[4] = hBD-2 intranasal, both doses, dexamethasone 1 mg/kg BID orally

## human beta defensin 2 (GIGDPVTCLKSGAICHPVFCPRRYKQIGTCGLPGTKCCKKP; ends and bridges not checked; cysteine pairing not given here; listed as Homo sapiens) [hBD-2]
PBMC cells
  Toxicity (PBMC cell viability): not toxic irrespectively of concentration; also recorded: not to be toxic
BALB/c mice [1]; 15 mice oral hBD-2 for 10 days vs 15 mice PBS, p<0.0001
  Mortality: highly statistically significant reduction of mortality
BALB/c mice [1]; 15 mice, 1.2 mg/kg BW/day oral gavage day 0-10
  Share of treated mice that had died by day 35: less than 30%
BALB/c mice [1]; 15 mice, 1.2 mg/kg BW/day oral gavage day 0-10, all 15 vehicle mice had died by day 35
  Mice that had died by day 35: 4
BALB/c mice [1]; 15 mice, 1.2 mg/kg BW/day oral gavage day 0-10, p<0.0001
  Mice still alive by day 100: 8
BALB/c mice [1]; FACS analysis of the spleen
  IL-1β from myeloid cells: Reduced IL-1B production in myeloid cells; also recorded: reduction of IL-1β from myeloid cells
  Neutrophils: Reduced proportion of neutrophils; also recorded: reduced number of neutrophils
BALB/c mice [1]; FACS analysis of the spleen, CD4, CD8 and CD69+CD4 T cells
  Th1 cytokine production, IFN-γ: reduced Th 1 cytokine production; also recorded: reduced Th1 cytokine production
BALB/c mice [1]; FACS analysis of the spleen, CD4 and CD8 T cells
  Th1 cytokine production, TNF-α: reduced Th 1 cytokine production; also recorded: reduced Th1 cytokine production
BALB/c mice [1]; first 7 days following bone marrow transplantation
  Weight loss: lost statistically significantly less weight
BALB/c mice [1]; hBD-2 treated group versus PBS
  Microarray analysis of colon samples: decreased inflammation, leucocyte and myeloid cell migration and tissue remodelling
BALB/c mice [1]
  Intestinal T cell infiltration: Reduction of intestinal T cell and myeloid cell infiltration
  Myeloid cell infiltration: Reduction of intestinal T cell and myeloid cell infiltration
  Infiltration with CD45+ leucocytes: Reduced CD45+leucocyte cell migration
BALB/c mice [1]; listed as hBD2
  Infiltration with CD45+ leucocytes: reduced the infiltration
  Intestinal T cell infiltration: reduced
  Myeloid cell infiltration: reduced
BALB/c mice [1]; serum
  IL-6 concentration: reduction of TNF-α and IL-6 concentrations
  IL-10 concentration: increased concentration of IL-10
  TNF-α concentration: reduction of TNF-α and IL-6 concentrations
BALB/c mice [1]; vs PBS
  Histology score of the colon: statistically significant reduction of histology score; also recorded: highly statistically lower
  Histology score of the liver: statistically significant reduction of histology score; also recorded: highly statistically lower
  Histology score of the small intestine: statistically significant reduction of histology score; also recorded: highly statistically lower
BALB/c mice [2]; 48 hours post challenge, hBD-2 intranasal, both doses (0.4 mg/kg/day TID and 1.7 mg/kg/day TID), dexamethasone 1 mg/kg BID orally
  Total cell count in BALF: significantly inhibited total, neutrophil and macrophage cell counts
BALB/c mice [2]; [4]
  Eosinophil count in BALF: trend towards lowering of eosinophils
  Macrophage count in BALF: significantly inhibited total, neutrophil and macrophage cell counts
  Neutrophil count in BALF: significantly inhibited total, neutrophil and macrophage cell counts
BALB/c mice [2]; intranasal hBD-2
  TNF-α level in lung tissue homogenate: not significantly different from the control
BALB/c mice [2]; intranasal hBD-2 TID on day 14
  Decrease of pulmonary compliance: effectively inhibited
  Increase of airway resistance (AHR): effectively inhibited increase of airway resistance
BALB/c mice [2]; oral hBD-2 0.4 mg/kg TID on day 14
  Decrease of pulmonary compliance: effectively inhibited
BALB/c mice [2]; oral on day 14: hBD-2 0.4 mg/kg TID, dexamethasone 1 mg/kg BID
  Increase of airway resistance (AHR): effectively inhibited increase of airway resistance
BALB/c mice [2]; oral: hBD-2 0.4 mg/kg TID, dexamethasone 1 mg/kg BID, vs HDM/vehicle control
  TNF-α level in lung tissue homogenate: significantly reduced TNF-α
[3]; colon, hBD-2 p<0.04
  Relative abundance of Bifidobacteriaceae: dramatically and statistically significant increased the relative abundance of Bifidobacteriaceae
[3]; colon, therapeutic intervention, HD5 p<0.02
  Abundance of Alloprevotella: no influence on Alloprevotella abundance
[3]; small intestine, hBD-2 p<0.0001
  Relative abundance of Bifidobacteriaceae: dramatically and statistically significant increased the relative abundance of Bifidobacteriaceae
